Source: patent US11168086B2, “Methods of synthesizing pyrazine compounds” (Hoffmann-La Roche Inc., priority 2015, dated 2021)

Test system: HBV
Assay: HBV inhibition assay: anti-HBV activity in vitro in HepG2.2.15 cells (extracellular HBV DNA by qPCR)
Format: cell-based
Conditions: Hepatitis B virus, 120 h, five days after compound treatment, extracellular HBV DNA in culture supernatant by qPCR, concentration at which HBV replication is inhibited by 50%
In short: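 HepG2.2.15 cells (stably carrying HBV genome) treated with half-log serially diluted compounds at 0.5% DMSO final for five days. Extracellular HBV DNA in supernatant quantified by qPCR after Proteinase K digestion; EC50 is concentration giving 50% inhibition of replication.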

Row | SMILES | EC50
1 | C[C@H]1[C@H](C)n2ncc(N3CCCC3=O)c2CN1C(=O)Nc1cc(F)c(F)c(F)c1 [Example 251, (6S,7S)-6,7-dimethyl-3-(2-oxopyrrolidin-1-yl)-N-(3,4,5-trifluorophenyl)-6,7-dihydro-4H-pyrazolo[1,5-a]pyrazine-5-carboxamide] | 45 nM
2 | C[C@H]1Cn2ncc(N3CC4(CC4)CC3=O)c2CN1C(=O)Nc1cc(F)c(F)c(F)c1 [Example 252, (6S)-6-methyl-3-(6-oxo-5-azaspiro[2.4]heptan-5-yl)-N-(3,4,5-trifluorophenyl)-6,7-dihydro-4H-pyrazolo[1,5-a]pyrazine-5-carboxamide] | 15 nM
3 | C[C@H]1Cn2ncc(N3CC4CC4C3=O)c2CN1C(=O)Nc1cc(F)c(F)c(F)c1 (stereo partly drawn) [Example 253, (6S)-6-methyl-3-(2-oxo-3-azabicyclo[3.1.0]hexan-3-yl)-N-(3,4,5-trifluorophenyl)-6,7-dihydro-4H-pyrazolo[1,5-a]pyrazine-5-carboxamide] | 44 nM
4 | CC1CC(=O)N(c2cnn3c2CN(C(=O)Nc2ccc(F)c(Cl)c2)[C@@H](C)C3)C1 (stereo partly drawn) [Example 254, (6S)—N-(3-chloro-4-fluoro-phenyl)-6-methyl-3-(4-methyl-2-oxo-pyrrolidin-1-yl)-6,7-dihydro-4H-pyrazolo[1,5-a]pyrazine-5-carboxamide] | 39 nM
5 | C[C@H]1Cn2ncc(N3CC(C(F)(F)F)CC3=O)c2CN1C(=O)Nc1ccc(F)c(Cl)c1 (stereo partly drawn) [Example 255, (6S)—N-(3-chloro-4-fluoro-phenyl)-6-methyl-3-[2-oxo-4-(trifluoromethyl)pyrrolidin-1-yl]-6,7-dihydro-4H-pyrazolo[1,5-a]pyrazine-5-carboxamide] | 28 nM
6 | C[C@H]1Cn2ncc(N3CCC(O)C3=O)c2CN1C(=O)Nc1ccc(F)c(Cl)c1 (stereo partly drawn) [Example 256, (6S)—N-(3-chloro-4-fluoro-phenyl)-3-(3-hydroxy-2-oxo-pyrrolidin-1-yl)-6-methyl-6,7-dihydro-4H-pyrazolo[1,5-a]pyrazine-5-carboxamide] | 68 nM
7 | C[C@H]1Cn2ncc(N3CC(C)(C)CC3=O)c2CN1C(=O)Nc1ccc(F)c(Cl)c1 [Example 257, (6S)—N-(3-chloro-4-fluoro-phenyl)-3-(4,4-dimethyl-2-oxo-pyrrolidin-1-yl)-6-methyl-6,7-dihydro-4H-pyrazolo[1,5-a]pyrazine-5-carboxamide] | 15 nM
8 | C[C@H]1Cn2ncc(N3CC(C(F)(F)F)CC3=O)c2CN1C(=O)Nc1cc(F)c(F)c(F)c1 (stereo partly drawn) [Example 259, (6S)-6-methyl-3-[2-oxo-4-(trifluoromethyl)pyrrolidin-1-yl]-N-(3,4,5-trifluorophenyl)-6,7-dihydro-4H-pyrazolo[1,5-a]pyrazine-5-carboxamide] | 23 nM
9 | C[C@@H]1[C@H](C)N(C(=O)Nc2cc(F)c(F)c(F)c2)Cc2c(N3CCCC3=O)cnn21 [Example 261, (6S,7R)-6,7-dimethyl-3-(2-oxopyrrolidin-1-yl)-N-(3,4,5-trifluorophenyl)-6,7-dihydro-4H-pyrazolo[1,5-a]pyrazine-5-carboxamide] | 40 nM
10 | C[C@H]1Cn2ncc(N3CC[C@H](O)C3=O)c2CN1C(=O)Nc1cc(F)c(F)c(F)c1 [Example 262, (6S)-3-[(3S)-3-hydroxy-2-oxo-pyrrolidin-1-yl]-6-methyl-N-(3,4,5-trifluorophenyl)-6,7-dihydro-4H-pyrazolo[1,5-a]pyrazine-5-carboxamide] | 65 nM
11 | C[C@H]1Cn2ncc(N3CC(COc4ncccn4)CC3=O)c2CN1C(=O)Nc1cc(F)c(F)c(F)c1 (stereo partly drawn) [Example 267, (6S)-6-methyl-3-[2-oxo-4-(pyrimidin-2-yloxymethyl)pyrrolidin-1-yl]-N-(3,4,5-trifluorophenyl)-6,7-dihydro-4H-pyrazolo[1,5-a]pyrazine-5-carboxamide] | 39 nM
12 | C[C@H]1Cn2ncc(N3CC(Cn4cccn4)CC3=O)c2CN1C(=O)Nc1cc(F)c(F)c(F)c1 (stereo partly drawn) [Example 268, (6S)-6-methyl-3-[2-oxo-4-(pyrazol-1-ylmethyl)pyrrolidin-1-yl]-N-(3,4,5-trifluorophenyl)-6,7-dihydro-4H-pyrazolo[1,5-a]pyrazine-5-carboxamide] | 96 nM
13 | C[C@H]1Cn2ncc(N3CC(Nc4ncccn4)CC3=O)c2CN1C(=O)Nc1cc(F)c(F)c(F)c1 (stereo partly drawn) [Example 269, (6S)-6-methyl-3-[2-oxo-4-(pyrimidin-2-ylamino)pyrrolidin-1-yl]-N-(3,4,5-trifluorophenyl)-6,7-dihydro-4H-pyrazolo[1,5-a]pyrazine-5-carboxamide] | 12 nM
14 | C[C@H]1Cn2ncc(N3CC(Nc4ncncc4F)CC3=O)c2CN1C(=O)Nc1cc(F)c(F)c(F)c1 (stereo partly drawn) [Example 270, (6S)-3-[4-[(5-fluoropyrimidin-4-yl)amino]-2-oxo-pyrrolidin-1-yl]-6-methyl-N-(3,4,5-trifluorophenyl)-6,7-dihydro-4H-pyrazolo[1,5-a]pyrazine-5-carboxamide] | 17 nM
15 | C[C@H]1Cn2ncc(N3CCOCC3=O)c2CN1C(=O)Nc1cc(F)c(F)c(C(F)F)c1 [Example 271, (6S)—N-[3-(difluoromethyl)-4,5-difluoro-phenyl]-6-methyl-3-(3-oxomorpholin-4-yl)-6,7-dihydro-4H-pyrazolo[1,5-a]pyrazine-5-carboxamide] | 38 nM
16 | C[C@H]1Cn2ncc(N3CC(C)(C)OC3=O)c2CN1C(=O)Nc1ccnc(C(F)F)c1 [Example 272, (6S)—N-[2-(difluoromethyl)-4-pyridyl]-3-(5,5-dimethyl-2-oxo-oxazolidin-3-yl)-6-methyl-6,7-dihydro-4H-pyrazolo[1,5-a]pyrazine-5-carboxamide] | 104 nM
17 | C[C@H]1[C@H](C)n2ncc(N3CCNC3=O)c2CN1C(=O)Nc1cc(F)c(F)c(F)c1 [Example 273, (6S,7S)-6,7-dimethyl-3-(2-oxoimidazolidin-1-yl)-N-(3,4,5-trifluorophenyl)-6,7-dihydro-4H-pyrazolo[1,5-a]pyrazine-5-carboxamide] | 39 nM
18 | C[C@H]1[C@H](C)n2ncc(N3CCOCC3=O)c2CN1C(=O)Nc1cc(F)c(F)c(F)c1 [Example 274, (6S,7S)-6,7-dimethyl-3-(3-oxomorpholin-4-yl)-N-(3,4,5-trifluorophenyl)-6,7-dihydro-4H-pyrazolo[1,5-a]pyrazine-5-carboxamide] | 40 nM
19 | C[C@H]1Cn2ncc(N3CN(C(=O)c4ccccc4)CC3=O)c2CN1C(=O)Nc1cc(F)c(F)c(F)c1 [Example 275, (6S)-3-(3-benzoyl-5-oxo-imidazolidin-1-yl)-6-methyl-N-(3,4,5-trifluorophenyl)-6,7-dihydro-4H-pyrazolo[1,5-a]pyrazine-5-carboxamide] | 64 nM
20 | C[C@H]1Cn2ncc(N3CC(C)(C)OC3=O)c2CN1C(=O)Nc1cc(F)c(F)c(C(F)F)c1 [Example 276, (6S)—N-[3-(difluoromethyl)-4,5-difluoro-phenyl]-3-(5,5-dimethyl-2-oxo-oxazolidin-3-yl)-6-methyl-6,7-dihydro-4H-pyrazolo[1,5-a]pyrazine-5-carboxamide] | 6 nM
21 | CC1COC(=O)N(c2cnn3c2CN(C(=O)Nc2cc(F)c(F)c(F)c2)[C@@H](C)C3)C1 (stereo partly drawn) [Example 278, (6S)-6-methyl-3-(5-methyl-2-oxo-1,3-oxazinan-3-yl)-N-(3,4,5-trifluorophenyl)-6,7-dihydro-4H-pyrazolo[1,5-a]pyrazine-5-carboxamide] | 27 nM
22 | C[C@H]1Cn2ncc(N3CN(c4ncccn4)CC3=O)c2CN1C(=O)Nc1cc(F)c(F)c(F)c1 [Example 281, (6S)-6-methyl-3-(5-oxo-3-pyrimidin-2-yl-imidazolidin-1-yl)-N-(3,4,5-trifluorophenyl)-6,7-dihydro-4H-pyrazolo[1,5-a]pyrazine-5-carboxamide] | 52 nM
23 | C[C@H]1Cn2ncc(N3CC(c4nnco4)CC3=O)c2CN1C(=O)Nc1cc(F)c(F)c(F)c1 (stereo partly drawn) [Example 282, (6S)-6-methyl-3-[4-(1,3,4-oxadiazol-2-yl)-2-oxo-pyrrolidin-1-yl]-N-(3,4,5-trifluorophenyl)-6,7-dihydro-4H-pyrazolo[1,5-a]pyrazine-5-carboxamide] | 57 nM
24 | Cc1nnc(C2CC(=O)N(c3cnn4c3CN(C(=O)Nc3cc(F)c(F)c(F)c3)[C@@H](C)C4)C2)o1 (stereo partly drawn) [Example 283, (6S)-6-methyl-3-[4-(5-methyl-1,3,4-oxadiazol-2-yl)-2-oxo-pyrrolidin-1-yl]-N-(3,4,5-trifluorophenyl)-6,7-dihydro-4H-pyrazolo[1,5-a]pyrazine-5-carboxamide] | 47 nM
25 | Cc1noc(C2CC(=O)N(c3cnn4c3CN(C(=O)Nc3cc(F)c(F)c(F)c3)[C@@H](C)C4)C2)n1 (stereo partly drawn) [Example 284, (6S)-6-methyl-3-[4-(3-methyl-1,2,4-oxadiazol-5-yl)-2-oxo-pyrrolidin-1-yl]-N-(3,4,5-trifluorophenyl)-6,7-dihydro-4H-pyrazolo[1,5-a]pyrazine-5-carboxamide] | 10 nM
26 | Cc1nc(C2CC(=O)N(c3cnn4c3CN(C(=O)Nc3cc(F)c(F)c(F)c3)[C@@H](C)C4)C2)no1 (stereo partly drawn) [Example 285, (6S)-6-methyl-3-[4-(5-methyl-1,2,4-oxadiazol-3-yl)-2-oxo-pyrrolidin-1-yl]-N-(3,4,5-trifluorophenyl)-6,7-dihydro-4H-pyrazolo[1,5-a]pyrazine-5-carboxamide] | 7 nM
27 | C[C@H]1Cn2ncc(N3CC(c4nnc(C(F)(F)F)o4)CC3=O)c2CN1C(=O)Nc1cc(F)c(F)c(F)c1 (stereo partly drawn) [Example 286, (6S)-6-methyl-3-[2-oxo-4-[5-(trifluoromethyl)-1,3,4-oxadiazol-2-yl]pyrrolidin-1-yl]-N-(3,4,5-trifluorophenyl)-6,7-dihydro-4H-pyrazolo[1,5-a]pyrazine-5-carboxamide] | 26 nM
28 | C[C@H]1Cn2ncc(N3CC(c4cncs4)CC3=O)c2CN1C(=O)Nc1cc(F)c(F)c(F)c1 (stereo partly drawn) [Example 290, (6S)-6-methyl-3-(2-oxo-4-thiazol-5-yl-pyrrolidin-1-yl)-N-(3,4,5-trifluorophenyl)-6,7-dihydro-4H-pyrazolo[1,5-a]pyrazine-5-carboxamide] | 11 nM
